Source: PubChem BioAssay (NCI)
Several values for one entry are separate records, joined by “and”; a condition that tells them apart may be missing. Equal values may be shown once.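 The compound was tested at five concentrations on cells cultured in 96-well plates, with a 48-hour exposure period. Abbreviation: GI50, concentration required for 50% inhibition of growth. The concentration for full growth arrest is given as TGI.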

Legend:
Test in all cases: DTP human tumour cell line panel, 48 h
DU-145 prostate = system: DU-145 prostate
UACC-62 melanoma = system: UACC-62 melanoma
LOX IMVI melanoma = system: LOX IMVI melanoma
RXF 393 renal = system: RXF 393 renal
UACC-257 melanoma = system: UACC-257 melanoma
K-562 leukemia = system: K-562 leukemia
SNB-75 CNS = system: SNB-75 CNS
SW-620 colon = system: SW-620 colon
OVCAR-5 ovarian = system: OVCAR-5 ovarian
M14 melanoma = system: M14 melanoma

Row | SMILES | GI50 (DU-145 prostate) | GI50 (UACC-62 melanoma) | TGI (UACC-62 melanoma) | GI50 (LOX IMVI melanoma) | TGI (LOX IMVI melanoma) | GI50 (RXF 393 renal) | TGI (RXF 393 renal) | GI50 (UACC-257 melanoma) | TGI (UACC-257 melanoma) | GI50 (K-562 leukemia) | TGI (K-562 leukemia) | GI50 (SNB-75 CNS) | TGI (SNB-75 CNS) | GI50 (SW-620 colon) | TGI (SW-620 colon) | GI50 (OVCAR-5 ovarian) | TGI (OVCAR-5 ovarian) | GI50 (M14 melanoma) | TGI (M14 melanoma) | TGI (DU-145 prostate)
1 | COc1cccc2c1C(=O)c1c(O)c3c(c(O)c1C2=O)C[C@@](O)(C(=O)CO)C[C@@H]3OC1C[C@H](N)[C@H](O)[C@H](C)O1 (stereo partly specified) | 0.0684 µM | 0.0346 µM | 0.117 µM | 0.0178 µM | 0.181 µM | 0.0751 µM | 0.25 µM | 0.102 µM | 1.8 µM | 0.089 µM | 3.18 µM | 0.034 µM | 0.147 µM | 0.0312 µM | 2.97 µM | 0.214 µM | 14.5 µM | 0.0846 µM | 0.404 µM | 
2 | COc1ccc2c(c1)C(c1ccccc1Cl)=Nc1c(n[nH]c1C)N2 | > 25 µM | 25 µM | > 25 µM | 14.7 µM | > 25 µM | 3.7 µM | > 25 µM | > 25 µM | > 25 µM | > 25 µM | > 25 µM | 3.14 µM | > 17.3 µM | > 16.1 µM | > 25 µM | > 25 µM | > 25 µM | > 25 µM | > 25 µM | > 25 µM
3 | O=C(N/N=C/c1ccccc1O)C(=O)Nc1ccc(F)cc1 | 7.14 µM | 3.32 µM | 23.1 µM | 4.28 µM | > 100 µM | 9.93 µM | > 100 µM | 2.85 µM | 15 µM | 5.02 µM | > 100 µM | 14.2 µM | 69.4 µM | 6.26 µM | > 100 µM | 6.69 µM | > 100 µM | 4.87 µM | 40.4 µM | > 100 µM
4 | CCCCCCCCCCCCSC(=N)N | 8.98 µM | 15.7 µM | 31 µM | 3.58 µM | 13.3 µM | 6.64 µM | 26.6 µM | 13.8 µM | 27.3 µM | 2.01 µM | 4.64 µM | 16.2 µM | 35 µM | 2.73 µM | 8.14 µM | 12.4 µM | 25.3 µM | 5.16 µM | 17.2 µM | 23 µM
5 | C=CCC(N[C@H](CO)c1ccccc1)c1cn(C(=O)OCC)c2ccccc12 (stereo partly specified) | 19.3 µM | 16.4 µM | 30.6 µM | 15.9 µM | 30.1 µM | 0.98 µM | 21.3 µM |  | 18 µM | 8.51 µM | 33.2 µM | 23 µM | 74.3 µM | 25.6 µM | 52.2 µM | 16.3 µM | 33.8 µM | 14.3 µM | 28.2 µM | 37.3 µM
6 | O=C(c1ccco1)c1c(C(F)(F)F)n([O-])c2ccccc2[n+]1=O | 0.367 µM | 0.536 µM | 2.61 µM | 0.548 µM | 2.1 µM | 1.43 µM | 9.45 µM | 4.32 µM | 14.7 µM | 0.207 µM | 3.43 µM | 8.36 µM | 25.1 µM | 0.859 µM | 20.5 µM | 3.68 µM | 13.4 µM | 0.613 µM | 1.91 µM | 0.969 µM
7 | COc1cc2c[n+](C)c3c4ccccc4ccc3c2cc1OC (tested in a mixture with another compound) | 13.5 µM | 3.08 µM | 20.3 µM | 4.02 µM | 30.9 µM |  | 54.4 µM | 2.11 µM | 6.15 µM and 49 µM | 2.29 µM |  | 3.11 µM | 8.49 µM and 15 µM | 2.71 µM | 48 µM | 4.67 µM | 52.7 µM | 8.31 µM | 51.9 µM | 69.6 µM
8 | O=C(O)c1ccc(N/C=C2\C(=O)c3ccccc3OC2O)cc1O (stereo unspecified) | 22.7 µg/mL | 17.4 µg/mL | 52.4 µg/mL | 22.5 µg/mL | 73.3 µg/mL | 12.6 µg/mL | 34.5 µg/mL | 28.9 µg/mL | 93.1 µg/mL | 16 µg/mL | 87.2 µg/mL | 17.7 µg/mL | 84.3 µg/mL | 20.3 µg/mL | 48.3 µg/mL | 31.2 µg/mL | 78.5 µg/mL | 21.5 µg/mL | 47.5 µg/mL | 65.6 µg/mL
9 | C#Cc1c(C(N)=O)ncn1C1OC(COP(=O)(OCc2ccc([N+](=O)[O-])o2)N(C)CCCCCl)C(O)C1O (stereo unspecified) | 7.83 µM | > 100 µM | > 100 µM | 22.4 µM | > 100 µM | > 100 µM | > 100 µM | 35.2 µM | > 100 µM | 74.2 µM | > 100 µM | 28.1 µM | > 100 µM | 41.4 µM | > 100 µM | 16.2 µM | > 100 µM | 67.9 µM | > 100 µM | > 100 µM
